These results are taken from patent US12077503B2, “Substituted cyclic amides and their use as herbicides” (FMC CORPORATION, priority 2015, dated 2024).

What all share (type): in vivo
Test [1] concerns barnyardgrass (Echinochloa crus-galli). As to the kind of experiment: Test A postemergence. As to conditions: Echinochloa crus-galli, post-emergence, 240 h, 125 g ai/ha, postemergence, visual injury rating after approximately 10 d; read-out: Barnyardgrass plant response rating (0 to 100 scale, 0 no effect, 100 complete control). An outline of the steps: (§1)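 Greenhouse, ~10 d after spray; visual injury vs untreated controls, 0 = no effect, 100 = complete control. Preemergence: directed soil spray over planted seeds. Postemergence: plants 2–10 cm, 1–2 leaf stage. Loam/sand blend. Compound in non-phytotoxic solvent with surfactant.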

The test system of test [2] is corn (Zea mays). As to the kind of experiment: Test A postemergence. As to conditions: Zea mays, post-emergence, 240 h, 125 g ai/ha, postemergence, visual injury rating after approximately 10 d; read-out: Corn plant response rating (0 to 100 scale, 0 no effect, 100 complete control). An outline of the steps:
as §1

The test system of test [3] is ragweed (common ragweed, Ambrosia elatior). As to the kind of experiment: Test A postemergence. As to conditions: Ambrosia artemisiifolia, post-emergence, 240 h, 125 g ai/ha, postemergence, visual injury rating after approximately 10 d; read-out: Ragweed plant response rating (0 to 100 scale, 0 no effect, 100 complete control). An outline of the steps: as §1
Test [4] has as its system ryegrass, Italian (Italian ryegrass, Lolium multiflorum). As to the kind of experiment: Test A postemergence. As to conditions: Lolium multiflorum, post-emergence, 240 h, 125 g ai/ha, postemergence, visual injury rating after approximately 10 d; read-out: Ryegrass, Italian plant response rating (0 to 100 scale, 0 no effect, 100 complete control). An outline of the steps:
as §1

The test system of test [5] is wheat (Triticum aestivum). Description: Test A postemergence. As to conditions: Triticum aestivum, post-emergence, 240 h, 125 g ai/ha, postemergence, visual injury rating after approximately 10 d; read-out: Wheat plant response rating (0 to 100 scale, 0 no effect, 100 complete control). An outline of the steps: as §1
Test [6] has as its system pigweed (Amaranthus retroflexus). Description: Test A postemergence. As to conditions: Amaranthus retroflexus, post-emergence, 240 h, 125 g ai/ha, postemergence, visual injury rating after approximately 10 d; read-out: Pigweed plant response rating (0 to 100 scale, 0 no effect, 100 complete control). Summed up:
as §1

For test [7], the system named is Galium (catchweed bedstraw, Galium aparine). As to the kind of experiment: Test A postemergence. As to conditions: Galium, post-emergence, 240 h, 125 g ai/ha, postemergence, visual injury rating after approximately 10 d; read-out: Galium plant response rating (0 to 100 scale, 0 no effect, 100 complete control). An outline of the steps:
as §1

The test system of test [8] is Kochia (Kochia scoparia). Description: Test A postemergence. As to conditions: Bassia scoparia, post-emergence, 240 h, 125 g ai/ha, postemergence, visual injury rating after approximately 10 d; read-out: Kochia plant response rating (0 to 100 scale, 0 no effect, 100 complete control). An outline of the steps: as §1
Test [9] deals with blackgrass (Alopecurus myosuroides). As to the kind of experiment: Test A postemergence. As to conditions: Alopecurus myosuroides, post-emergence, 240 h, 125 g ai/ha, postemergence, visual injury rating after approximately 10 d; read-out: Blackgrass plant response rating (0 to 100 scale, 0 no effect, 100 complete control). An outline of the steps:
as §1

Test [10] has as its system giant foxtail (Setaria faberii). Description: Test A postemergence. As to conditions: Setaria faberi, post-emergence, 240 h, 125 g ai/ha, postemergence, visual injury rating after approximately 10 d; read-out: Foxtail, Giant plant response rating (0 to 100 scale, 0 no effect, 100 complete control). Summed up:
as §1

In test [11] the test system is barnyardgrass (Echinochloa crus-galli). As to the kind of experiment: Test B flooded paddy test. As to conditions: Echinochloa crus-galli, Flood, 250 g ai/ha; scale of 0 to 100 where 0 is no effect and 100 is complete control; read-out: Barnyardgrass plant response rating. Summed up:
(§2)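 Evaluation by eye, against controls, occurred 13–15 d post-treatment in a greenhouse, using a 0 (no effect) to 100 (complete control) scale. Application was into the paddy water, 3 cm deep over the soil, on 2-leaf plants.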

The test system of test [12] is rice (Oryra sativa). Description: Test B flooded paddy test. As to conditions: Oryza sativa, Flood, 250 g ai/ha; scale of 0 to 100 where 0 is no effect and 100 is complete control; read-out: Rice plant response rating. An outline of the steps: as §2
Test [13] relates to sedge, umbrella (small-flower umbrella sedge, Cyperus difformis). As to the kind of experiment: Test B flooded paddy test. As to conditions: Cyperus difformis, Flood, 250 g ai/ha; scale of 0 to 100 where 0 is no effect and 100 is complete control; read-out: Sedge, Umbrella plant response rating. Summed up:
as §2

The subject of test [14] is ducksalad (Heteranthera limosa). Description: Test B flooded paddy test. As to conditions: Heteranthera limosa, Flood, 250 g ai/ha; scale of 0 to 100 where 0 is no effect and 100 is complete control; read-out: Ducksalad plant response rating. An outline of the steps:
as §2

Test [15] deals with giant foxtail (Setaria faberii). As to the kind of experiment: Test A preemergence. As to conditions: Setaria faberi, pre-emergence, 240 h; for pest or weed control at 125 g/ha: 125 g ai/ha, preemergence, 0 to 100 scale where 0 is no effect and 100 is complete control, read-out: Foxtail, Giant plant response rating; for pest or weed control at 500 g/ha: 500 g ai/ha, Preemergence, visual injury vs untreated controls after approximately 10 d, read-out: Foxtail, Giant plant response rating (0 to 100 scale where 0 is no effect and 100 is complete control). Summed up: as §1

`O=C1NC[C@H](c2ccc3c(c2)CCCO3)[C@H]1C(=O)Nc1ccccc1F` [Compound 885]: the pest or weed control at 125 g/ha amounted to 70% in [1]; 0% in test [3]; 0% in test [4]; 0% in [6]; 20% in test [7]; 0% in test [8]. In addition, the pest or weed control at 125 g/ha in test [9] came to 0%; in test [10], 40%; in [15], 50%. The plant injury at 125 g/ha in test [2] and in test [5] was 0% in each case. Also, the pest or weed control at 250 g/ha was determined as 0% in test [11], 0% in test [12], 0% in test [13] and 60% in test [14]. Moreover, the pest or weed control at 500 g/ha in test [15] was found to be 80%.

Take `O=C1NC[C@H](c2cncc(C(F)(F)F)c2)[C@H]1C(=O)Nc1ccccc1F` [Compound 887]: the pest or weed control at 125 g/ha in [1] is 80%; in [3], 0%; in test [4], 0%; in test [6], 0%; in test [7], 0%; in test [8] it was 0%. For the same molecule, the figures for the pest or weed control at 125 g/ha in [9], in test [10] and in [15] were 0%, 70% and 80%, respectively. For the same molecule, the plant injury at 125 g/ha in [2] and in [5] was 0% in each case. Also, the pest or weed control at 250 g/ha in test [11] stood at 50%; in [12], 0%; in test [13], 0%; in test [14] it was 65%. Further, the pest or weed control at 500 g/ha in test [15] is 90%.

Turning to `COc1c(F)ccc([C@H]2CN(C)C(=O)[C@@H]2C(=O)Nc2cccc(F)c2F)c1Cl` [Compound 893], the pest or weed control at 125 g/ha in test [1] was determined as 100%; in test [3] it was 30%; in test [4], 60%; in test [6], 20%; in test [7] it was 50%; in [8] it was 60%. The results for the pest or weed control at 125 g/ha in test [9], in test [10] and in test [15] were 30%, 90% and 90%, respectively. The plant injury at 125 g/ha came to 80% in test [2] and 30% in test [5]. For the same molecule, the pest or weed control at 250 g/ha in [11] is 90%; in test [12] it was 10%; in [13], 0%; in test [14], 90%. Further, the pest or weed control at 500 g/ha in [15] worked out at 90%.

For the molecule `COc1c(F)ccc([C@H]2CN(C)C(=O)[C@@H]2C(=O)Nc2ccc(F)cc2F)c1Cl` [Compound 894], the pest or weed control at 125 g/ha worked out at 90% in test [1]; 0% in [3]; 50% in [4]; 0% in [6]; 40% in [7]; 50% in test [8]. The pest or weed control at 125 g/ha in test [9] is 0%; in [10] it was 90%; in test [15], 90%. For the same molecule, the plant injury at 125 g/ha in [2] was found to be 60%; in test [5] it was 20%. Further, the pest or weed control at 250 g/ha in test [11] worked out at 70%; in test [12], 0%; in test [13], 0%; in test [14], 100%. Also, the pest or weed control at 500 g/ha in test [15] worked out at 100%.

Turning to `CN1C[C@H](c2cc(F)c(C(F)(F)F)c(F)c2)[C@@H](C(=O)Nc2cccc(F)c2F)C1=O` [Compound 898], the pest or weed control at 125 g/ha in test [1] stood at 80%; in test [3], 0%; in test [4], 50%; in test [6] it was 40%; in test [7], 0%; in test [8], 0%. Moreover, the pest or weed control at 125 g/ha in [9] turned out to be 50%; in [10], 80%; in [15] it was 90%. For the same molecule, the plant injury at 125 g/ha in test [2] worked out at 70%; in test [5] it was 40%. Moreover, the pest or weed control at 250 g/ha in test [11] came out at 55%; in [12], 0%; in [13] it was 0%; in test [14], 70%. Moreover, the pest or weed control at 500 g/ha in test [15] turned out to be 90%.

For `O=C1NC[C@H](c2ccc3c(c2)CCO3)[C@H]1C(=O)Nc1ccc(F)cc1F` [Compound 902], the pest or weed control at 125 g/ha in test [1] worked out at 60%; in test [3], 0%; in test [4] it was 0%; in test [6], 0%; in test [7], 0%; in [8] it was 0%. Besides, the pest or weed control at 125 g/ha in test [9] was 0%; in test [10], 30%; in test [15] it was 30%. In addition, the plant injury at 125 g/ha in test [2] and in test [5] was 0% each time. Moreover, the pest or weed control at 250 g/ha is 0% in [11], 0% in test [12], 0% in [13] and 75% in test [14]. Also, the pest or weed control at 500 g/ha in test [15] was 90%.

`CCOc1ccc([C@H]2CN(C)C(=O)[C@@H]2C(=O)Nc2ccccc2F)cc1` [Compound 903]: the pest or weed control at 125 g/ha in [1] worked out at 80%; in test [3] it was 0%; in test [4], 0%; in test [6], 0%; in test [7] it was 10%; in test [8], 0%. In addition, the pest or weed control at 125 g/ha turned out to be 0% in test [9], 80% in test [10] and 90% in test [15]. The plant injury at 125 g/ha in test [2] and in [5] was 0% throughout. In addition, the pest or weed control at 250 g/ha in [11], in test [12], in test [13] and in [14] was 0% in each case. Moreover, the pest or weed control at 500 g/ha in test [15] is 90%.
